From patent publication US12435068B2, “Anthelmintic compounds” (Elanco Animal Health GmBh, priority 2018, dated 2025) come the findings set out here.

In brackets after ≈: the same amount, converted by molar mass.

Assay [1] has as its system Dirofilaria immitis microfilariae. The assay can be described thus: In Vitro Assay 2: Dirofilaria immitis microfilariae (DIROIM L1) motility. It is filed as cell-based. Particulars: 72 h, read-out: EC50 ppm.
For assay [2], the system named is Dirofilaria immitis larvae. Description: In Vitro Assay 3: Dirofilaria immitis (DIROIM L4) larval motility. The note with it: 72 h, read-out: EC50 ppm. The class given is cell-based.
In another assay the target is C. elegans Slo-1a (Caenorhabditis elegans, UniProt Q95V25).

As usually defined, the EC50 is the midpoint of the concentration-response curve.

Sequence of C. elegans Slo-1a (Q95V25 whole entry): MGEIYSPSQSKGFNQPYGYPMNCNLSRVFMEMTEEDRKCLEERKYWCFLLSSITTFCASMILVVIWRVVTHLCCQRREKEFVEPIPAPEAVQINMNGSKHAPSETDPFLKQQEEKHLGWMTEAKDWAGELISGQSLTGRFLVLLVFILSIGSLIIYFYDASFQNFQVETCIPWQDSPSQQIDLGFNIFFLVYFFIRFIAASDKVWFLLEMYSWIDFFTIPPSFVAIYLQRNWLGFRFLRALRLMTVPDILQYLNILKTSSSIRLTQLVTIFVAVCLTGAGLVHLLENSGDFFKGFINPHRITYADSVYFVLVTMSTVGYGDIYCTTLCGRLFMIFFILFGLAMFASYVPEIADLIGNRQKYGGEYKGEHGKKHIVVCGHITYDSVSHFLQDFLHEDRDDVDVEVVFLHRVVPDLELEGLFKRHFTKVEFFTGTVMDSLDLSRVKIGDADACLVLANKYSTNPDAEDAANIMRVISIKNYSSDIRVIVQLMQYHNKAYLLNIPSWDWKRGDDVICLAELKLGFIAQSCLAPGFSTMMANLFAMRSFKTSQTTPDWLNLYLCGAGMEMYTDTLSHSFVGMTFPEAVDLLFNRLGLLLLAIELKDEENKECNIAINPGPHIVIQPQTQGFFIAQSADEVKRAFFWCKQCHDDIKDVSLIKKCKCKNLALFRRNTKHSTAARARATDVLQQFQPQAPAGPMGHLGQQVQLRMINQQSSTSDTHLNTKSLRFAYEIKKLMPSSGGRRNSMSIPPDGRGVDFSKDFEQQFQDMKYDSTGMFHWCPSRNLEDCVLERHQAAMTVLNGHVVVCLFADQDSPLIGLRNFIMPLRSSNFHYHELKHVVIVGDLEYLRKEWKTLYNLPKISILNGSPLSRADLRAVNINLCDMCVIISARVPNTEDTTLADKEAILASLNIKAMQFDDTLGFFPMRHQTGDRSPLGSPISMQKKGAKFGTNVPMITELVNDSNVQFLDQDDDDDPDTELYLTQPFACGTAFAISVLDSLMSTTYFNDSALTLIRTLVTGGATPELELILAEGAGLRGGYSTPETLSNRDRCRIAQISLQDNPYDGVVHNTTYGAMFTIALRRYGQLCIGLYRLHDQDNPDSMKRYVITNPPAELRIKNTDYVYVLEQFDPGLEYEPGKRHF

Regarding `CC(C)c1c(C(=O)N[C@H]2CCOc3ccccc32)c(=O)oc2c(-c3cc(Cl)cc(Cl)c3)cccc12` [Example Compound S8a-2, 8-(3,5-Dichlorophenyl)-N-[(4S)-3,4-dihydro-2H-chromen-4-yl]-2-oxo-4-(propan-2-yl)-2H-chromene-3-carboxamide], the concentration giving a half-maximal response (EC50) in assay [1] was less than 0.0032 µg/mL; in assay [2], 0.18 µg/mL (≈ 0.354 µM); on C. elegans Slo-1a, 1.26 nM.

With `CC(C)C1=C(C(=O)N[C@H]2CCOc3ccccc32)COc2c1cccc2-c1cc(Cl)cc(Cl)c1` [Example Compound S8a-1, 8-(3,5-Dichlorophenyl)-N-[(4S)-3,4-dihydro-2H-chromen-4-yl]-4-(propan-2-yl)-2H-chromene-3-carboxamide], the values for the half-maximal effective concentration (EC50) (in assay [1]; in assay [2]; at C. elegans Slo-1a) were less than 0.0032 µg/mL, 0.04 µg/mL (≈ 0.0809 µM) and 3.16 nM, respectively.

As to `COc1c(C(=O)N[C@H]2CCOc3ccccc32)sc2c(-c3cccc(Cl)c3Cl)cccc12` [Example Compound S1-11, 7-(2,3-Dichlorophenyl)-N-[(4S)-3,4-dihydro-2H-chromen-4-yl]-3-methoxy-1-benzothiophene-2-carboxamide], the values for the EC50 (in assay [1]; in assay [2]; on C. elegans Slo-1a) were 0.04 µg/mL (≈ 0.0826 µM), greater than 0.08 µg/mL and 31.6 nM, respectively.

Take `CC(C)c1c(C(=O)N[C@H]2CCOc3ccccc32)sc2c(-c3cccc(Cl)c3)cccc12` [Example Compound S1-2, 7-(3-Chlorophenyl)-N-[(4S)-3,4-dihydro-2H-chromen-4-yl]-3-isopropyl-1-benzothiophene-2-carboxamide]: the figures for the EC50 (in assay [1]; in assay [2]; on C. elegans Slo-1a) were 0.03 µg/mL (≈ 0.0649 µM), greater than 0.08 µg/mL and 3.98 nM, respectively.
